Results taken from patent publication US9724334B1, “Method for treating a neurodegenerative disease or depression comprising administering derivatives of 2-amino-2-(1-dodecyl-1H-1,2,3-triazol-4-yl)propane-1,3-diol” (Kyungpook National University Industry-Academic Cooperation …, priority 2016, dated 2017).

Assays:
[1] = tested on: APP/PS1 mice; assay: Morris water maze (MWM), learning and memory in APP/PS1 mice; format: in vivo, mouse; settings: 100 mg/kg/day via drinking water, versus unfed APP/PS1 mice
Procedure: (§1) To confirm the therapeutic effect of the novel ASM inhibitory compounds, the novel ASM inhibitory compound or AMI were fed via drinking water at a dose of 100 mg/kg/day to mice at 5.5 months of age. Three months after the feeding, behavioral analysis on the mice was performed, followed by sampling of mouse brain tissues (FIG. 3).
Morris water maze (MWM) and fear conditioning experiments were conducted to identify potential effects on learning and memory. For MWM, the mice were learned the task four times a day for 10 days, followed by the removal of the platform at the 11th day and subsequently a probe trial. On the first day of the fear conditioning, the mice were placed in the conditioning chamber and subjected to sound stimulation (10 kHz, 70 dB) and electrical stimulation (0.3 mA, 1s). On the second day, their memory was checked without stimulation in the same conditioning chamber as on the first day. On the third day, memory tests were conducted for fear when only sound stimulation was given in another conditioning chamber. Open field tests and dark & light tests were conducted to assess activity and anxiety. In the open field test, the mice were placed in a square box for 10 minutes to measure their overall activity and time spent wandering the wall and center. In the dark & light test, the mice were placed in a rectangular box composed of a dark box and a bright box for 10 minutes to measure the time spent in each box, the number of round trips, and the time when the mice entered the bright box for the first time.
In order to determine the potential effect of the novel ASM inhibitory compound of the present invention on learning and cognition in the animal models of Alzheimer's disease, the MWM (Morris water maze) and the fear conditioning test were performed, respectively.

[2] = target: T1, ASM (acid sphingomyelinase) (Mus musculus, UniProt Q04519); assay: ASM concentration levels in plasma and brain tissue of APP/PS1 mice after feeding via drinking water; format: in vivo; settings: 9.5 month-old APP/PS1 mice, 100 mg/kg/day via drinking water; versus unfed APP/PS1 mice
T1 construct: from tissue; host or cells: plasma and brain tissue of APP/PS1 transgenic mice (C57BL/6 background)
T1 sequence (Q04519 45-627): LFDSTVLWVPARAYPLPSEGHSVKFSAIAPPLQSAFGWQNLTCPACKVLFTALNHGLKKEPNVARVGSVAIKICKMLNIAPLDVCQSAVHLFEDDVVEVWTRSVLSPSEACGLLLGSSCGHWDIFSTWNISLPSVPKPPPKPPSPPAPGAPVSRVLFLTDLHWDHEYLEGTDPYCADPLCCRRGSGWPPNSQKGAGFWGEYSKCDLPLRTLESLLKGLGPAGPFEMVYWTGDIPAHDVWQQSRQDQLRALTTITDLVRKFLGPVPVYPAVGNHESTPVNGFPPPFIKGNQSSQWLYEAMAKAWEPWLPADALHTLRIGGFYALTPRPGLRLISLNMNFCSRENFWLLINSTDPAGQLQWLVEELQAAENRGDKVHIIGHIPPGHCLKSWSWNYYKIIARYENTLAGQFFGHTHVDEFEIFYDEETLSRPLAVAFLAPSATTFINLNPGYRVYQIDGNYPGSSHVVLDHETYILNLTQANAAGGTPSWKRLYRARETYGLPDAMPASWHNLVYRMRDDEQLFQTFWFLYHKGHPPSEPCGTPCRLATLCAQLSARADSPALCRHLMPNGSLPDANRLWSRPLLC
Excerpt: IACUC (Kyungpook National University Institutional Animal Care and Use Committee) approved the present mouse experiment. A transgenic mouse line overexpressing APPswe (hAPP695swe) or PS1 (presenilin-1M146V) was used based on C57BL/6 mouse (Charles River, UK) (hereinafter, APP mouse: APPswe-overexpressing mouse, PS1 mouse: presenilin-1M146V overexpressing mouse; GlaxoSmithKline). To confirm the therapeutic effect of the novel ASM inhibitory compounds, the novel ASM inhibitory compound or AMI were fed via drinking water at a dose of 100 mg/kg/day to mice at 5.5 months of age. Three months after the feeding, behavioral analysis on the mice was performed, followed by sampling of mouse brain tissues (FIG. 3). The concentration levels of ASM were measured as follows. Specifically, a microliter mouse plasma, brain tissue and 3 μl of fibroblast samples were mixed with ASM activity buffer and stored at 37° C. 114 μl of ethanol was added to terminate the hydrolysis reaction, followed by centrifugation. 30 μl of the supernatant was transferred to a glass vial, of which 5 μl was applied to the UPLC system. The ASM concentration levels were quantified by comparison with Bodipy (aminoacetaldehyde) conjugated with sphingomyelin and ceramide. Extraction and quantification of the sphingomyelin and ceramide were performed by extracting lipids from known method samples and resuspending the dried lipid extract in 25 μl of 0.2% Igepal CA-630 (Sigma-Aldrich). Each lipid level was quantified using the UPLC system. Using an experimental animal model APP/PS1 mouse for Alzheimer's disease patients, ASM concentration levels in plasma and brain tissues were measured after administration of AMI, which is the most widely used as an ASM inhibitor, and the novel ASM inhibitory compound of the Chemical Formula 2.

[3] = tested on: APP/PS1 mice; assay: Amyloid-β deposition in brain of APP/PS1 mice (thioflavin S staining, Aβ40 and Aβ42 immunofluorescence); format: in vivo, mouse; settings: 100 mg/kg/day via drinking water, versus APP/PS1 mice
Excerpt: IACUC (Kyungpook National University Institutional Animal Care and Use Committee) approved the present mouse experiment. A transgenic mouse line overexpressing APPswe (hAPP695swe) or PS1 (presenilin-1M146V) was used based on C57BL/6 mouse (Charles River, UK) (hereinafter, APP mouse: APPswe-overexpressing mouse, PS1 mouse: presenilin-1M146V overexpressing mouse; GlaxoSmithKline).
as §1
After fixing the cerebrum and hippocampus of the test mice, 0.5% thioflavin S (Sigma-Aldrich), anti-20G10 antibodies (Mouse, 1:1000) against Aβ, 42 and anti-G30 antibodies (rabbit, 1:1000) against Aβ, 40, anti-GFAP antibodies (rabbit, 1:500, DAKO) were cultured together. The above sites were analyzed using a laser scanning confocal microscope equipped with Fluoview SV1000 imaging software (Olympus FV1000, Japan) or an Olympus BX51 microscope. Percentage of area of stained area to total tissue area was quantified and analyzed using Metamorph software (Molecular Devices).
In order to confirm the effect of the novel ASM inhibitory compound of the Chemical Formula 2 on the lesion of Alzheimer's disease, the ASM inhibitory compound of the Chemical Formula 2 and AMI were administered orally for four months, respectively, as shown in FIG. 3.
To begin with, the profile of Aβ of Alzheimer's disease was identified. First, according to known methods in the art, the cerebral cortex and hippocampus of the mice were stained with thioflavin S (ThioS), confirming the fibrillary amyloid-β deposition. In addition, amyloid-β deposition was confirmed by carrying out the Aβ40 and Aβ42 immunofluorescence.

[4] = target: T2, ASM (acid sphingomyelinase) (Homo sapiens, UniProt P17405); assay: ASM activity in fibroblasts derived from Alzheimer's disease patients (PS1 fibroblasts); format: cell-based; set-up: dose or concentration left out as unconfirmed; settings: PS1 fibroblasts with increased ASM activity; versus untreated PS1 fibroblasts
T2 construct: fibroblasts (PS1 fibroblasts) derived from Alzheimer's disease patients, followed by the measurement of the change of ASM activity; host or cells: human fibroblast cell lines (PS1, from Alzheimer's disease patients)
T2 sequence (P17405 47-631): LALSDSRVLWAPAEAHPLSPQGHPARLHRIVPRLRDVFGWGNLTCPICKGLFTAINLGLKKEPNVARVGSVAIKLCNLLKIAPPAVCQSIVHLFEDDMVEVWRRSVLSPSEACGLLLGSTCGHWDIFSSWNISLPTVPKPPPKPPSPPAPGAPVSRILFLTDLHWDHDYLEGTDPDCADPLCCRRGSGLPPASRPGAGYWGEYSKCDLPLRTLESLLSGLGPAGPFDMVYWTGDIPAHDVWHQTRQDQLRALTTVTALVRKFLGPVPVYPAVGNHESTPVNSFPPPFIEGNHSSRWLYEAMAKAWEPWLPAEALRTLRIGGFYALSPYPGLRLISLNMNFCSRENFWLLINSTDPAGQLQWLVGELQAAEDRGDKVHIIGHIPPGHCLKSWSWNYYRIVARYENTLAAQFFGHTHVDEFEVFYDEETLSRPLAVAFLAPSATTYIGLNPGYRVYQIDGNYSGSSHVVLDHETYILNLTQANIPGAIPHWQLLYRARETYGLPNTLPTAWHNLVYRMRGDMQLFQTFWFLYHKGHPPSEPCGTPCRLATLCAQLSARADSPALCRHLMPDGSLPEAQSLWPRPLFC
Procedure: Human fibroblast cell lines (normal and PS1) were obtained from Coriell Institute and cultured in DMEM containing 15% FBS under the condition of 5% CO2 at 37° C. Subsequently, the cell lines were treated with the ASM inhibitory compound of the Chemical Formula 1, amitriptyline (AMI) and FTY720, followed by measuring the change of ASM activity. The concentration levels of ASM were measured as follows. Specifically, a microliter mouse plasma, brain tissue and 3 μl of fibroblast samples were mixed with ASM activity buffer and stored at 37° C. 114 μl of ethanol was added to terminate the hydrolysis reaction, followed by centrifugation. 30 μl of the supernatant was transferred to a glass vial, of which 5 μl was applied to the UPLC system. The ASM concentration levels were quantified by comparison with Bodipy (aminoacetaldehyde) conjugated with sphingomyelin and ceramide. Extraction and quantification of the sphingomyelin and ceramide were performed by extracting lipids from known method samples and resuspending the dried lipid extract in 25 μl of 0.2% Igepal CA-630 (Sigma-Aldrich). Each lipid level was quantified using the UPLC system. In order to confirm the ASM inhibitory effect of the compound developed according to the present invention, the ASM inhibitory compound of the Chemical Formula 2, AMI and FTY720 were treated […] concentration, respectively, in the fibroblasts (PS1 fibroblasts) derived from Alzheimer's disease patients, followed by the measurement of the change of ASM activity.

[5] = brain tissue immunofluorescence

ASM concentration level in brain tissues [2]: remarkably low | ASM concentration level in plasma [2]: remarkably low | change of ASM activity [4]: markedly reduced
SMILES: CN(C)CCC=C1c2ccccc2CCc2ccccc21 [AMI, amitriptyline, reference compound]
spatial memory, cognitive and memory formation disability [1]: improved | Aβ40 deposition [3, 5]: significantly lower | Aβ42 deposition [3, 5]: significantly lower | fibrillary Aβ deposition (thioflavin S) ([3]; cerebral cortex and hippocampus): significantly lower
